In test [1] the target is RAC-alpha serine/threonine-protein kinase (Homo sapiens) (UniProt P31749). Description: Inhibition of recombinant full length human His-tagged AKT1 expressed in baculovirus expression system assessed as enzyme residual activity at 0.4 uM using fluorophore-labeled serine/threonine-06 peptide as substrate incubated for 60 mins by Z'-LYTE assay relative to control.
The target of test [2] is T1, Tyrosine-protein kinase ITK/TSK (Homo sapiens) (UniProt Q08881).
T1 sequence (whole entry): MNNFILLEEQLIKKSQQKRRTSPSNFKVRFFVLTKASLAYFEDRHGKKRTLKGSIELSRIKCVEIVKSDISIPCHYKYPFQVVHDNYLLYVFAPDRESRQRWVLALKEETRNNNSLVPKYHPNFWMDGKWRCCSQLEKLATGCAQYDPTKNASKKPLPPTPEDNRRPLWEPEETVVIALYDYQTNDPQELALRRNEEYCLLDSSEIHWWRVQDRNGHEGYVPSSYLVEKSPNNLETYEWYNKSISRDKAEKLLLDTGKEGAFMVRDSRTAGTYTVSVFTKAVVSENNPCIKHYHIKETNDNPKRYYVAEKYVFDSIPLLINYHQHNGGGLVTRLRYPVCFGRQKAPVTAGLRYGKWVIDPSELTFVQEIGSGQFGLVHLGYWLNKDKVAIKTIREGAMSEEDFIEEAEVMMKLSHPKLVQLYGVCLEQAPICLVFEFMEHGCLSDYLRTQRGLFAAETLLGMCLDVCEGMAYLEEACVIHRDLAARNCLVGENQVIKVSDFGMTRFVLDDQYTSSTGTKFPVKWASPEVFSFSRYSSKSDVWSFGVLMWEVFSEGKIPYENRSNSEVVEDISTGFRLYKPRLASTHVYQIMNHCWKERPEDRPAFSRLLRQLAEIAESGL
Briefly: Inhibition of ITK in human Jurkat cells assessed as reduction in anti-CD3/CD28-stimulated PLCgamma1 phosphorylation at 0.1 to 10000 nM preincubated for 2 hrs followed by anti-CD3/CD28 beads addition and measured after 30 min by Western blot analysis. It counts as cell-based.

SMILES strings stand for the structures. The source made the active and inactive calls. The rule behind the calls is not given here.

RAC-alpha serine/threonine-protein kinase (Homo sapiens), sequence (P31749 whole entry): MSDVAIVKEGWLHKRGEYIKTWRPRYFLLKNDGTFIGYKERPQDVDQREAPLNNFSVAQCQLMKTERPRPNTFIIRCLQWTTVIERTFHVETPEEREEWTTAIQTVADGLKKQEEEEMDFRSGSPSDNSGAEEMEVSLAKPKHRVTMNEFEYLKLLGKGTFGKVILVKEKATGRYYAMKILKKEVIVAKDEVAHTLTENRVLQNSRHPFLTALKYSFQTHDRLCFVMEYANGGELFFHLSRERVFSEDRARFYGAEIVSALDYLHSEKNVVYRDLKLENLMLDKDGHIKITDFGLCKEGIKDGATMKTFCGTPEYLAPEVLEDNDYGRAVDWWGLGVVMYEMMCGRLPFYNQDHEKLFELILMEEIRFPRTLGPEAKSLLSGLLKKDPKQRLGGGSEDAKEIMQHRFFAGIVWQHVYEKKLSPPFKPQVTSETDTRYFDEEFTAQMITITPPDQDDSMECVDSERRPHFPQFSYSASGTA

Take `C=CC(=O)N1CCC(Oc2nc(Nc3ccc(N4CCOCC4)cc3)nc3[nH]cc(-c4cncc(NC)n4)c23)CC1`: in test [1], the Activity stood at 96%. For the same molecule, in test [2], the inhibition result was “Active”.
